Assay results published in PubChem BioAssay AID288 (DTP/NCI, 2004).
Several values for one entry are separate records, joined by “and”; a condition that tells them apart may be missing. Equal values may be shown once. Inconclusive results are not listed.

Tested on: BDF1 mice, M5076 sarcoma s.c., survival/tumor T/C
Experiment: NCI In Vivo Anticancer Drug Screen. Data for tumor model Sarcoma M5076 (subcutaneous) in B6D2F1 (BDF1) mice
Protocol: The antitumor activity of compounds was measured in mice bearing transplantable tumors. Survival or tumor size were measured and the results are expressed as the measurement made in the treated group (T) divided by the measurement made in the vehicle treated control group (C). The tumor model used in this assay is Sarcoma M5076 (subcutaneous) in B6D2F1 (BDF1) mice

[1] = endpoint: median survival time, dose: 50.0 mg/kg/injection, schedule: Q01DX009 (ip), vehicle: saline with Tween-80, higher = longer survival
[2] = endpoint: median survival time, dose: 100.0 mg/kg/injection, schedule: Q01DX009 (ip), vehicle: saline with Tween-80, higher = longer survival
[3] = endpoint: median survival time, dose: 200.0 mg/kg/injection, schedule: Q01DX009 (ip), vehicle: saline with Tween-80, higher = longer survival
[4] = endpoint: median tumor weight (est.), dose: 50.0 mg/kg/injection, schedule: Q01DX009 (ip), vehicle: saline with Tween-80, higher = larger tumour
[5] = endpoint: median tumor weight (est.), dose: 100.0 mg/kg/injection, schedule: Q01DX009 (ip), vehicle: saline with Tween-80, higher = larger tumour
[6] = endpoint: median tumor weight (est.), dose: 200.0 mg/kg/injection, schedule: Q01DX009 (ip), vehicle: saline with Tween-80, higher = larger tumour

| Structure (SMILES) | T/C [1] | T/C [2] | T/C [3] | T/C [4] | T/C [5] | T/C [6] | other results |
| --- | --- | --- | --- | --- | --- | --- | --- |
| COc1ccc(/C=C2\SC(=S)N(C3CC3)C2=O)cc1OC | 95 % of control | 93 % of control | 100 % of control | 90 % of control | 88 % of control | 79 % of control | – |
| Cc1cc(-c2ccc(NC(=O)c3cccc([N+](=O)[O-])c3)c(C)c2)ccc1NC(=O)c1cccc([N+](=O)[O-])c1 | 107 % of control | 102 % of control | 102 % of control | 90 % of control | 83 % of control | 71 % of control | – |
| COc1cccc(/C=N/NP(=S)(Oc2ccc(C(C)(C)C)cc2)Oc2ccc(C(C)(C)C)cc2)c1OC | 94 % of control | 94 % of control | 100 % of control | 122 % of control | 100 % of control | 74 % of control | – |
| N[C@H](C(=O)O)[C@@H]1CC(Cl)=NO1 | – | – | – | – | – | – | T/C (endpoint: mean tumor weight, dose: 2.0 mg/kg/injection, schedule: Q02DX011 (ip), vehicle: saline, higher = larger tumour): 2 % of control; T/C (endpoint: median survival time, dose: 2.0 mg/kg/injection, schedule: Q01DX010 (ip), vehicle: saline, higher = longer survival): 165 % of control; T/C (endpoint: median survival time, dose: 4.0 mg/kg/injection, schedule: Q01DX010 (ip), vehicle: saline, higher = longer survival): 177 % of control; T/C (endpoint: median survival time, dose: 8.0 mg/kg/injection, schedule: Q01DX010 (ip), vehicle: saline, higher = longer survival): 178 % of control; T/C (endpoint: median survival time, dose: 16.0 mg/kg/injection, schedule: Q01DX010 (ip), vehicle: saline, higher = longer survival): 90 % of control; T/C (endpoint: median survival time, dose: 32.0 mg/kg/injection, schedule: Q04DX005 (ip), vehicle: saline, higher = longer survival): 171 % of control and 176 % of control; T/C (endpoint: median survival time, dose: 64.0 mg/kg/injection, schedule: Q04DX005 (ip), vehicle: saline, higher = longer survival): 184 % of control and 186 % of control; T/C (endpoint: median survival time, dose: 128.0 mg/kg/injection, schedule: Q04DX005 (ip), vehicle: saline, higher = longer survival): 193 % of control and 195 % of control |
| COC1CC23OC2(C1)C1C=CC3N(C(=O)OCC(Cl)(Cl)Cl)N1C(=O)OCC(Cl)(Cl)Cl (stereo not given) | 100 % of control and 94 % of control | 102 % of control and 89 % of control | 98 % of control and 110 % of control | 111 % of control and 93 % of control | 66 % of control and 77 % of control | 90 % of control | – |
| O=C1CC(=O)N(C2CCCCC2)C(=O)N1c1ccccc1S(=O)(=O)Oc1ccccc1 | 94 % of control | 90 % of control | 100 % of control | 111 % of control | 56 % of control | 96 % of control | – |
| O=[N+]([O-])c1nccn1CC(O)CO (stereo not given) | – | – | – | – | – | – | T/C (endpoint: median survival time, dose: 1776.0 mg/kg/injection, schedule: Q01DX001 (ip), vehicle: saline, higher = longer survival): 101 % of control and 102 % of control; T/C (endpoint: median survival time, dose: 2500.0 mg/kg/injection, schedule: Q01DX001 (ip), vehicle: saline, higher = longer survival): 102 % of control (2×) and 92 % of control |
| CS(=O)(=O)OCCCCOS(C)(=O)=O | – | – | – | – | – | – | T/C (endpoint: mean tumor weight, dose: 15.0 mg/kg/injection, schedule: Q02DX011 (ip), vehicle: Klucel (hydroxypropylcellulose) (HPC), higher = larger tumour): 56 % of control |
| Cc1cc(C)nc(NS(=O)(=O)c2ccc(NC(=O)C(Cl)(Cl)Cl)cc2)n1 | 88 % of control | 88 % of control | 94 % of control | – | 171 % of control | 100 % of control | – |
| CC1(C)OCC(CO)(Nc2nc(N3CC3)nc(N3CC3)n2)CO1 | – | – | – | – | – | – | T/C (endpoint: median survival time, dose: 0.78 mg/kg/injection, schedule: Q02DX011 (ip), vehicle: saline, higher = longer survival): 98 % of control; T/C (endpoint: median survival time, dose: 1.56 mg/kg/injection, schedule: Q02DX011 (ip), vehicle: saline, higher = longer survival): 110 % of control; T/C (endpoint: median survival time, dose: 3.12 mg/kg/injection, schedule: Q02DX011 (ip), vehicle: saline, higher = longer survival): 164 % of control |
| Cc1ccc(S(=O)(=O)O)cc1.Cc1ccc(S(=O)(=O)O)cc1.[NH-]C1CCCCC1[NH-].[Pt+2] | – | – | – | – | – | – | T/C (endpoint: median survival time, dose: 4.0 mg/kg/injection, schedule: Q02DX032 (ip), vehicle: dextrose, higher = longer survival): 94 % of control |
